Source: publication doi:10.1101/2021.10.07.463234v2 (biorxiv, 2021)
Structures can show the parent of a compound that is named as a salt.

Target: SARS-CoV-2 Mac1 (Severe acute respiratory syndrome coronavirus 2, UniProt P0DTD1)
Test: biochemical
Settings: 100 µM; inhibitor

Going from `N=C(N)NCCN1CCCCCCC1` [Guanethidine Monosulfate] to `NCCc1c[nH]cn1` [Histamine 2HCl], the “%inhibition” value rises from 5.593% to 6.627%.

`N=C(N)NCCN1CCCCCCC1` [Guanethidine Sulfate] and `NCCc1c[nH]cn1` [Histamine Phosphate] are the same in “%inhibition” value: 0% for the first, 0% for the second.

`CCN(CCO)CCCC(C)Nc1ccnc2cc(Cl)ccc12` (centres unmarked) [Hydroxychloroquine Sulfate] and `COc1ccc2c(c1)c(CC(=O)O)c(C)n2C(=O)c1ccc(Cl)cc1` [Indometacin Sodium] are the same in “%inhibition” value: 0% for the first, 0% for the second.

Compared with `CCc1cc2c(cc1CC)CC(NC[C@H](O)c1ccc(O)c3[nH]c(=O)ccc13)C2` [Indacaterol Maleate], `COc1ccc2c(c1)c(CC(=O)O)c(C)n2C(=O)c1ccc(Cl)cc1` [Indomethacin] is higher in “%inhibition” value: 2.994% for the first, 39.29% for the second.

With `CCc1cc2c(cc1CC)CC(NC[C@H](O)c1ccc(O)c3[nH]c(=O)ccc13)C2` [Indacaterol] the “%inhibition” value was 1.05%.

Same assay, conditions: read-out: %inhibition

Compared with `COc1ccccc1OCC(O)CO` (centres unmarked) [Guaifenesin], `COc1ccc(C(=O)NCc2ccc(OCCN(C)C)cc2)cc1OC` [Itopride hydrochloride] is lower in inhibition at 100 µM: 33.3% for the first, 0% for the second.

`N=C(N)N/N=C/c1c(Cl)cccc1Cl` [Guanabenz Acetate] and `N=C(N)NC(=O)Cc1c(Cl)cccc1Cl` [Guanfacine Hydrochloride] are the same in inhibition at 100 µM: 0% for the first, 0% for the second.

Compared with `N=C(N)N` [Guanidine HCl], `NC(=O)NO` [Hydroxyurea] is higher in inhibition at 100 µM: 14% for the first, 20.8% for the second.

First: CC1(C)O[C@@H]2C[C@H]3[C@@H]4CCC5=CC(=O)CC[C@]5(C)[C@@]4(F)[C@@H](O)C[C@]3(C)[C@]2(C(=O)CCl)O1 [Halcinonide]
Second: C[C@]12CCC(=O)C=C1CC[C@@H]1[C@@H]2[C@@H](O)C[C@@]2(C)[C@H]1CC[C@]2(O)C(=O)CO [Hydrocortisone]
The inhibition at 100 µM of the first is higher: 25.9% for the first, 5.07% for the second.

Going from `CCC(=O)O[C@]1(C(=O)CCl)[C@@H](C)C[C@H]2[C@@H]3C[C@H](F)C4=CC(=O)C=C[C@]4(C)[C@@]3(F)[C@@H](O)C[C@@]21C` [Halobetasol Propionate] to `CC(=O)OCC(=O)[C@@]1(O)CC[C@H]2[C@@H]3CCC4=CC(=O)CC[C@]4(C)[C@H]3[C@@H](O)C[C@@]21C` [Hydrocortisone acetate], the inhibition at 100 µM falls from 24.3% to 0%.

`FC(F)(F)C(Cl)Br` (centres unmarked) [Halothane] and `C[C@@H](c1nc(-c2ccc(C#N)cc2)cs1)[C@](O)(Cn1cncn1)c1cc(F)ccc1F` [Isavuconazole] are the same in inhibition at 100 µM: 0% for the first, 0% for the second.

Going from `Oc1c(Cl)cc(Cl)c(Cl)c1Cc1c(O)c(Cl)cc(Cl)c1Cl` [Hexachlorophene] to `Clc1ccc(C(Cn2ccnc2)OCc2c(Cl)cccc2Cl)c(Cl)c1` (centres unmarked) [Isoconazole nitrate], the inhibition at 100 µM rises from 0% to 34.7%.

Going from `C[N+](C)(C)CCCCCC[N+](C)(C)C` [Hexamethonium?Dibromide] to `COC1=C(OC)C(=O)C(CCCCCCCCCCO)=C(C)C1=O` [Idebenone], the inhibition at 100 µM rises from 0% to 7.11%.

Compared with `CC[C@H](c1ccc(O)cc1)[C@@H](CC)c1ccc(O)cc1` [Hexestrol], `Oc1ccc(O)cc1` [Hydroquinone] is higher in inhibition at 100 µM: 0% for the first, 7.86% for the second.

Going from `CCCCCCc1ccc(O)cc1O` [Hexylresorcinol] to `CC(C)NCC(O)c1ccc(O)c(O)c1` (centres unmarked) [Isoprenaline HCl], the inhibition at 100 µM rises from 0% to 5.07%.

Compared with `C[N+]1(C)[C@@H]2CC[C@H]1C[C@@H](OC(=O)C(O)c1ccccc1)C2` (some centres unmarked) [Homatropine Methylbromide], `CC(C)[N+]1(C)[C@@H]2CC[C@H]1C[C@@H](OC(=O)C(CO)c1ccccc1)C2` (some centres unmarked) [Ipratropium Bromide] is higher in inhibition at 100 µM: 0% for the first, 9.25% for the second.

Going from `NNc1nncc2ccccc12` [Hydralazine HCl] to `CC(C)Cn1cnc2c(N)nc3ccccc3c21` [Imiquimod], the inhibition at 100 µM rises from 6.58% to 26.3%.

Compared with `CC[C@H]1CN2CC[C@H]1C[C@@H]2[C@@H](O)c1ccnc2ccc(OC)cc12` [Hydroquinidine], `COc1cc(C(C)=O)ccc1OCCCN1CCC(c2noc3cc(F)ccc23)CC1` [Iloperidone] is lower in inhibition at 100 µM: 4.48% for the first, 0% for the second.

Going from `CC(O)c1ccc(S(=O)(=O)NC(=O)NC2CCCCC2)cc1` (centres unmarked) [Hydroxyhexamide] to `CC(C(O)c1ccc(O)cc1)N1CCC(Cc2ccccc2)CC1` (centres unmarked) [Ifenprodil Tartrate], the inhibition at 100 µM rises from 28% to 34.6%.

Compared with `CCCCCC(=O)O[C@]1(C(C)=O)CC[C@H]2[C@@H]3CCC4=CC(=O)CC[C@]4(C)[C@H]3CC[C@@]21C` [Hydroxyprogesterone caproate], `CCc1c2c(nc3ccc(OC(=O)N4CCC(N5CCCCC5)CC4)cc13)-c1cc3c(c(=O)n1C2)COC(=O)[C@]3(O)CC` [Irinotecan HCl Trihydrate] is lower in inhibition at 100 µM: 8.48% for the first, 0% for the second.

Going from `OCCOCCN1CCN(C(c2ccccc2)c2ccc(Cl)cc2)CC1` (centres unmarked) [Hydroxyzine 2HCl] to `CCCCC1=NC2(CCCC2)C(=O)N1Cc1ccc(-c2ccccc2-c2nnn[nH]2)cc1` [Irbesartan], the inhibition at 100 µM falls from 11.4% to 2.32%.

First: CN[C@H]1C[C@@H](N)[C@H](O)[C@@H](O[C@@H]2O[C@H](CO)[C@H](O)[C@@H]3OC4(O[C@H]23)O[C@H]([C@@H](N)CO)[C@H](O)[C@H](O)[C@H]4O)[C@@H]1O (some centres unmarked) [Hygromycin B]
Second: CN[C@@H]1[C@@H](O)[C@@H](O[C@@H]2[C@@H](O)[C@H](O[C@H]3O[C@H](CN)[C@@H](O)[C@H](O)[C@H]3O)[C@@H](N)C[C@H]2NC(=O)[C@@H](O)CN)OC[C@]1(C)O [Isepamicin Sulphate]
The inhibition at 100 µM of the first is lower: 0% for the first, 5.6% for the second.

Going from `CCCCCN(C)CCC(O)(P(=O)(O)O)P(=O)(O)O` [Ibandronate sodium] to `CCCCCCCN(CC)CCCC(O)c1ccc(NS(C)(=O)=O)cc1` (centres unmarked) [Ibutilide Fumarate], the inhibition at 100 µM falls from 4.37% to 0%.

Going from `C=CC(=O)N1CCC[C@@H](n2nc(-c3ccc(Oc4ccccc4)cc3)c3c(N)ncnc32)C1` [Ibrutinib (PCI-32765)] to `CC[C@H](Nc1ncnc2[nH]cnc12)c1nc2cccc(F)c2c(=O)n1-c1ccccc1` [Idelalisib (CAL-101, GS-1101)], the inhibition at 100 µM falls from 6.43% to 0%.

`CC(C)C(=O)c1c(C(C)C)nn2ccccc12` [Ibudilast] and `CC(C)Cc1ccc(C(C)C(=O)O)cc1` (centres unmarked) [Ibuprofen] are the same in inhibition at 100 µM: 0% for the first, 0% for the second.

Going from `C#Cc1cccc(Nc2ncnc3cc4c(cc23)OCCOCCOCCO4)c1` [Icotinib] to `COc1cc(C(=O)O)ccc1NC(=O)[C@@H]1N[C@@H](CC(C)(C)C)[C@](C#N)(c2ccc(Cl)cc2F)[C@H]1c1cccc(Cl)c1F` [Idasanutlin (RG-7388)], the inhibition at 100 µM falls from 15.2% to 0%.

Going from `O=c1[nH]c(=O)n([C@H]2C[C@H](O)[C@@H](CO)O2)cc1I` [Idoxuridine] to `O=c1[nH]cnc2c1ncn2[C@@H]1O[C@H](CO)[C@@H](O)[C@H]1O` [Inosine], the inhibition at 100 µM falls from 44.1% to 0%.

First: O=C1C2CC3CC1CC(O)(C3)C2 [Idramantone]
Second: C[C@@H](O)[C@H]1C(=O)N2C(C(=O)O)=C(SCCNC=N)C[C@H]12 [Imipenem]
The inhibition at 100 µM of the first is lower: 3.83% for the first, 9.79% for the second.

Compared with `O=P1(NCCCl)OCCCN1CCCl` (centres unmarked) [Ifosfamide], `CCOC(=O)[C@H](CCc1ccccc1)N[C@@H](C)C(=O)N1C(=O)N(C)C[C@H]1C(=O)O` [Imidapril HCl] is lower in inhibition at 100 µM: 10.6% for the first, 0% for the second.

First: CS(=O)(=O)Nc1cc2occ(NC=O)c(=O)c2cc1Oc1ccccc1 [Iguratimod]
Second: CC(C)Oc1ccc2c(=O)c(-c3ccccc3)coc2c1 [Ipriflavone (Osteofix)]
The inhibition at 100 µM of the first is higher: 4.14% for the first, 0% for the second.

Going from `CNC(=O)[C@H](Cc1c[nH]c2ccccc12)NC(=O)[C@@H](CC(=O)NO)CC(C)C` [Ilomastat (GM6001, Galardin)] to `CCC(NC(C)C)C(O)c1ccc(O)c(O)c1` (centres unmarked) [Isoetharine Mesylate], the inhibition at 100 µM falls from 21% to 17.6%.

First: Cc1nccn1CCC(C(N)=O)(c1ccccc1)c1ccccc1 [Imidafenacin]
Second: CN(C)CCCN1c2ccccc2CCc2ccccc21 [Imipramine HCl]
The inhibition at 100 µM of the first is higher: 8.33% for the first, 2.2% for the second.

Going from `CC1Cc2ccccc2N1NC(=O)c1ccc(Cl)c(S(N)(=O)=O)c1` (centres unmarked) [Indapamide] to `Cc1cc(NC(=O)C2=C(O)c3ccccc3S(=O)(=O)N2C)no1` [Isoxicam], the inhibition at 100 µM falls from 36.3% to 13.6%.

First: O=C1/C(=C2\Nc3ccc(S(=O)(=O)O)cc3C2=O)Nc2ccc(S(=O)(=O)O)cc21 [Indigo carmine]
Second: O=C1/C(=C2\Nc3ccccc3C2=O)Nc2ccccc21 [Indigo]
The inhibition at 100 µM of the first is higher: 39.3% for the first, 9.76% for the second.

First: NC(=O)c1ccc(I)c([N+](=O)[O-])c1 [Iniparib (BSI-201)]
Second: NNC(=O)c1ccncc1 [Isoniazid]
The inhibition at 100 µM of the first is higher: 31% for the first, 24.4% for the second.

Going from `CC(=O)N(CC(O)CN(C(C)=O)c1c(I)c(C(=O)NC[C@@H](O)CO)c(I)c(C(=O)NC[C@@H](O)CO)c1I)c1c(I)c(C(=O)NC[C@@H](O)CO)c(I)c(C(=O)NC[C@@H](O)CO)c1I` [Iodixanol] to `O=C(NCC(O)CO)c1c(I)c(C(=O)NCC(O)CO)c(I)c(N(CCO)C(=O)CO)c1I` (centres unmarked) [Ioversol], the inhibition at 100 µM rises from 0.797% to 25.5%.

`C[C@H](O)C(=O)Nc1c(I)c(C(=O)NC(CO)CO)c(I)c(C(=O)NC(CO)CO)c1I` [Iopamidol] and `CCC(Cc1c(I)cc(I)c(N)c1I)C(=O)O` (centres unmarked) [Iopanoic acid] are the same in inhibition at 100 µM: 0% for the first, 0% for the second.

Compared with `Nc1nc(N)nc(-c2cc(Cl)ccc2Cl)n1` [Irsogladine], `Cc1ccc(C(=O)N(CCCN)[C@@H](c2nc3cc(Cl)ccc3c(=O)n2Cc2ccccc2)C(C)C)cc1` [Ispinesib (SB-715992)] is lower in inhibition at 100 µM: 22.5% for the first, 0% for the second.

Going from `O=[N+]([O-])O[C@@H]1CO[C@H]2[C@@H]1OC[C@@H]2O` [Isosorbide Mononitrate] to `O[C@@H]1CO[C@H]2[C@@H]1OC[C@@H]2O` [Isosorbide], the inhibition at 100 µM rises from 2.49% to 17.9%.

`CC1=C(/C=C/C(C)=C/C=C/C(C)=C\C(=O)O)C(C)(C)CCC1` [Isotretinoin] and `COC(=O)C1=C(C)NC(C)=C(C(=O)OC(C)C)C1c1cccc2nonc12` (centres unmarked) [Isradipine] are the same in inhibition at 100 µM: 0% for the first, 0% for the second.

Work on `CCn1c(=O)c2c(nc(/C=C/c3ccc(OC)c(OC)c3)n2C)n(CC)c1=O` [Istradefylline] yielded an inhibition at 100 µM of 28.9%.
